Here are results for 15 molecules from US20150274664A1 (MERCK SHARP & DOHME CORP., priority 2012, published 2015).

pEC50: −log10 of the molar value.

The target in the assay is T1, human SNP variant (S309L) of GPR119 (Homo sapiens, UniProt Q8TDV5, S309L).
T1 construct: expressed in transfected cells; host or cells: HEK293 Flp-In (Invitrogen)
T1 sequence (Q8TDV5 1-335 S309L): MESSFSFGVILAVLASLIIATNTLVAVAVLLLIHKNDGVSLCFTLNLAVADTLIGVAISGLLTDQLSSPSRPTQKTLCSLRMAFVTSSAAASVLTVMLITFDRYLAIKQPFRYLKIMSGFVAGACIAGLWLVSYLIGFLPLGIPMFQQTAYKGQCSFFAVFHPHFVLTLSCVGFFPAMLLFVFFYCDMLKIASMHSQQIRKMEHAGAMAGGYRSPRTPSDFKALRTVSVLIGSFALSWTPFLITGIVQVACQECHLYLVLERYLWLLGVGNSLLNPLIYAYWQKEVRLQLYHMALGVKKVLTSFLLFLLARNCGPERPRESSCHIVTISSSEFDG
As to the kind of experiment: GPR119 signaling, cAMP homogenous time resolved fluorescence (HTRF) assay. It is filed as cell-based. To be noted: HEK293 Flp-In cells stably transfected with human GPR119 (S309L), HTRF kit. The source says:
Measurement of GPR119 Signaling Using a Cyclic AMP (cAMP) Homogenous Time Resolved Fluorescence (HTRF) Assay
Chinese hamster ovary (CHO) cell lines stably transfected with the permissive guanine nucleotide binding protein alpha 15 (Gals) and murine GPR119 were maintained in DMEM media containing FBS, penicillin-streptomycin, puromycin, and G418 (geneticin). Alternatively, human embryonic kidney (HEK)293 Flp-In cells (Invitrogen, Carlsbad, Calif.) were stably transfected with a human SNP variant (S309L) of GPR119 and maintained in DMEM media containing FBS, penicillin-streptomycin, and hygromycin. Agonist activation of the GPR119 receptor was measured in receptor transfected cells described above, treated with compounds of this invention, using a commercial homogenous time resolved fluorescence (HTRF) kit for measurement of cAMP (CisBio, Bedford, Mass.). The assay was performed in 96-well half-volume plates (murine) or 384-well plates (human) following the manufacturers instructions. Briefly, suspended cells were incubated with a dose titration of test compound at RT for 60 min, lysed, and incubated with HTRF reagents for an additional 60 min. The plate was read using an Envision multilabel reader (Perkin Elmer) adjusted to read time resolved fluorescence and the cAMP concentrations were extrapolated from a cAMP calibration curve. […] The concentration of test compound required to stimulate a half-maximal response (EC50), and efficacy as compared to an internal agonist control, was determined from a sigmoidal 4-parameter curve fit of the resulting plot of normalized activity versus compound concentration.
A general note: Time-resolved FRET reads energy transfer from a long-lived donor to a nearby acceptor.
`CS(=O)(=O)c1ccc(COC[C@H]2C[C@@H]2C2CCN(c3ncc(Cl)cn3)CC2)cc1F` [Example 5, 5-chloro-2-(4-((1R,2S)-2-(((3-fluoro-4-(methylsulfonyl)benzyl)oxy)methyl)cyclopropyl)piperidin-1-yl)pyrimidine]: the pEC50 was 9.00.

As to `CC(C)OC(=O)N1CCC([C@H]2C[C@@H]2COCc2ccc(S(C)(=O)=O)c(F)c2)CC1` [Example 20, isopropyl 4-((1R,2S)-2-(((3-fluoro-4-(methylsulfonyl)benzyl)oxy)methyl)cyclopropyl)piperidine-1-carboxylate], the pEC50 is 8.24.

The molecule `CC1(OC(=O)N2CCC([C@H]3C[C@@H]3COCc3ccc(S(C)(=O)=O)cc3)CC2)CC1` [Example 18, 1-methylcyclopropyl 4-((1R,2S)-2-(((4-(methylsulfonyl)benzyl)oxy)methyl)cyclopropyl)piperidine-1-carboxylate] gave a pEC50 of 8.19.

The molecule `Cc1cnc(N2CCC([C@H]3C[C@@H]3COCc3ccc(S(C)(=O)=O)cc3)CC2)nc1` [Example 6, 5-methyl-2-(4-((1R,2S)-2-(((4-(methylsulfonyl)benzyl)oxy)methyl)cyclopropyl)piperidin-1-yl)pyrimidine] showed a pEC50 of 8.15.

The molecule `COCc1cnc(N2CCC([C@H]3C[C@@H]3CCNc3ncc(-n4cnnn4)cn3)CC2)nc1` [Example 124, N-(2-((1R,2S)-2-(1-(5-(methoxymethyl)pyrimidin-2-yl)piperidin-4-yl)cyclopropyl)ethyl)-5-(1H-tetrazol-1-yl)pyrimidin-2-amine] gave a pEC50 of 8.28.

In the case of `CC(C)OC(=O)N1CCC([C@H]2C[C@@H]2COCc2ccc(S(C)(=O)=O)cc2)CC1` [Example 19, isopropyl 4-((1R,2S)-2-(((4-(methylsulfonyl)benzyl)oxy)methyl)cyclopropyl)piperidine-1-carboxylate], the pEC50 was 8.04.

`CS(=O)(=O)c1ccc(COC[C@H]2C[C@@H]2C2CCN(c3ncc(Cl)cn3)CC2)cc1` [Example 2, 5-chloro-2-(4-((1R,2S)-2-(((4-(methylsulfonyl)benzyl)oxy)methyl)cyclopropyl)piperidin-1-yl)pyrimidine] had a negative-log EC50 (pEC50) of 8.92.

`CCS(=O)(=O)c1ccc(COC[C@H]2C[C@@H]2C2CCN(c3ncc(Cl)cn3)CC2)cc1` [Example 3, 5-chloro-2-(4-((1R,2S)-2-(((4-(ethylsulfonyl)benzyl)oxy)methyl)cyclopropyl)piperidin-1-yl)pyrimidine] showed a pEC50 of 9.14.

`CS(=O)(=O)c1ccc(OCC[C@@H]2C[C@H]2C2CCN(c3nc(C4CC4)no3)CC2)nc1` [Example 112, 3-cyclopropyl-5-(4-((1S,2S)-2-(2-((5-(methylsulfonyl)pyridin-2-yl)oxy)ethyl)cyclopropyl)piperidin-1-yl)-1,2,4-oxadiazole] showed a negative-log EC50 (pEC50) of 8.21.

The molecule `CS(=O)(=O)c1ccc(NCC[C@H]2C[C@@H]2C2CCN(c3ncc(Cl)cn3)CC2)cc1` [Example 128, N-(2-((1R,2S)-2-(1-(5-chloropyrimidin-2-yl)piperidin-4-yl)cyclopropyl)ethyl)-4-(methylsulfonyl)aniline] showed a negative logarithm of the EC50 (pEC50) of 8.17.

In turn, `CC(C)c1noc(N2CCC([C@H]3C[C@@H]3COCc3ccc(S(C)(=O)=O)c(F)c3)CC2)n1` [Example 22, 5-(4-((1R,2S)-2-(((3-fluoro-4-(methylsulfonyl)benzyl)oxy)methyl)cyclopropyl)piperidin-1-yl)-3-isopropyl-1,2,4-oxadiazole] had a pEC50 of 8.49.

Molecule `CC(C)c1noc(N2CCC([C@H]3C[C@@H]3COCc3ccc(S(C)(=O)=O)cc3)CC2)n1` [Example 21, 3-isopropyl-5-(4-((1R,2S)-2-((4-(methylsulfonyl)benzyloxy)methyl)cyclopropyl)piperidin-1-yl)-1,2,4-oxadiazole] showed a pEC50 of 8.42.

Consider `CS(=O)(=O)c1ccc(COC[C@H]2C[C@@H]2C2CCN(C(=O)OC3CC3)CC2)cc1F` [Example 15, cyclopropyl 4-((1R,2S)-2-(((3-fluoro-4-(methylsulfonyl)benzyl)oxy)methyl)cyclopropyl)piperidine-1-carboxylate], for which the pEC50 was 8.62.

The molecule `Cc1nnc(-c2ccc(OCC[C@@H]3C[C@H]3C3CCN(c4ncc(Cl)cn4)CC3)cc2F)o1` [Example 64, 2-(4-(2-((1S,2S)-2-(1-(5-chloropyrimidin-2-yl)piperidin-4-yl)cyclopropyl)ethoxy)-2-fluorophenyl)-5-methyl-1,3,4-oxadiazole] had a pEC50 of 8.08.

Regarding `CC1(OC(=O)N2CCC([C@H]3C[C@@H]3COCc3ccc(S(C)(=O)=O)c(F)c3)CC2)CC1` [Example 17, 1-methylcyclopropyl 4-((1R,2S)-2-(((3-fluoro-4-(methylsulfonyl)benzyl)oxy)methyl)cyclopropyl)piperidine-1-carboxylate], the pEC50 is 8.34.

The term pEC50 denotes −log10 of the EC50, conventionally taken in molar units. A higher pEC50 goes with a small EC50.
